Active and inactive are the calls of the source. No rule for the calls is given here.
Test system: CCRIS mutagenicity, Ames/micronucleus/aberration tests
Test: CCRIS mutagenicity studies
[1] = Test System: AMES SALMONELLA TYPHIMURIUM, Strain/Indicator: TA98, Metabolic Activation: NONE, Method: STANDARD PLATE
[2] = Test System: AMES SALMONELLA TYPHIMURIUM, Strain/Indicator: TA98, Metabolic Activation: RAT, LIVER, S-9, AROCLOR 1254, Method: STANDARD PLATE
[3] = Test System: AMES SALMONELLA TYPHIMURIUM, Strain/Indicator: TA100, Metabolic Activation: NONE, Method: STANDARD PLATE
[4] = Test System: AMES SALMONELLA TYPHIMURIUM, Strain/Indicator: TA100, Metabolic Activation: RAT, LIVER, S-9, AROCLOR 1254, Method: STANDARD PLATE
[5] = Test System: AMES SALMONELLA TYPHIMURIUM, Strain/Indicator: TA97, Metabolic Activation: NONE, Method: PREINCUBATION
[6] = Test System: AMES SALMONELLA TYPHIMURIUM, Strain/Indicator: TA98, Metabolic Activation: NONE, Method: PREINCUBATION
[7] = Test System: AMES SALMONELLA TYPHIMURIUM, Strain/Indicator: TA100, Metabolic Activation: NONE, Method: PREINCUBATION
[8] = Test System: MOUSE LYMPHOMA, Strain/Indicator: L5178Y (TK+/TK-), Metabolic Activation: NONE, Method: SUSPENSION/PLATE
[9] = Test System: MOUSE LYMPHOMA, Strain/Indicator: L5178Y (TK+/TK-), Metabolic Activation: RAT, LIVER, S-9, AROCLOR 1254, Method: SUSPENSION/PLATE

SMILES: COC(=O)C(C)(C)Oc1ccc(-c2ccc(Cl)cc2)cc1
- mutagenic call [1]: inactive; negative
- mutagenic call [2]: inactive; negative
- mutagenic call (Test System: AMES SALMONELLA TYPHIMURIUM, Strain/Indicator: TA98, Metabolic Activation: RAT, LIVER, S-9, PHENOBARBITONE AND BETA-NAPHTHOFLAVONE, Method: PREINCUBATION): inactive; negative
- mutagenic call [3]: inactive; negative
- mutagenic call [4]: inactive; negative
- mutagenic call (Test System: AMES SALMONELLA TYPHIMURIUM, Strain/Indicator: TA100, Metabolic Activation: RAT, LIVER, S-9, PHENOBARBITONE AND BETA-NAPHTHOFLAVONE, Method: PREINCUBATION): inactive; negative
- mutagenic call (Test System: AMES SALMONELLA TYPHIMURIUM, Strain/Indicator: TA1535, Metabolic Activation: NONE, Method: STANDARD PLATE): inactive; negative
- mutagenic call (Test System: AMES SALMONELLA TYPHIMURIUM, Strain/Indicator: TA1535, Metabolic Activation: RAT, LIVER, S-9, AROCLOR 1254, Method: STANDARD PLATE): inactive; negative
- mutagenic call (Test System: AMES SALMONELLA TYPHIMURIUM, Strain/Indicator: TA1537, Metabolic Activation: NONE, Method: STANDARD PLATE): inactive; negative
- mutagenic call (Test System: AMES SALMONELLA TYPHIMURIUM, Strain/Indicator: TA1537, Metabolic Activation: RAT, LIVER, S-9, AROCLOR 1254, Method: STANDARD PLATE): inactive; negative
- mutagenic call (Test System: AMES SALMONELLA TYPHIMURIUM, Strain/Indicator: TA1538, Metabolic Activation: NONE, Method: STANDARD PLATE): inactive; negative
- mutagenic call (Test System: AMES SALMONELLA TYPHIMURIUM, Strain/Indicator: TA1538, Metabolic Activation: RAT, LIVER, S-9, AROCLOR 1254, Method: STANDARD PLATE): inactive; negative
- mutagenic call (Test System: E. COLI, Strain/Indicator: WP2 (PKM101), Metabolic Activation: NONE, Method: STANDARD PLATE): inactive; negative
- mutagenic call (Test System: E. COLI, Strain/Indicator: WP2 (PKM101), Metabolic Activation: RAT, LIVER, S-9, AROCLOR 1254, Method: STANDARD PLATE): inactive; negative
- mutagenic call (Test System: E. COLI, Strain/Indicator: WP2 (PKM101), Metabolic Activation: RAT, LIVER, S-9, PHENOBARBITONE AND BETA-NAPHTHOFLAVONE, Method: PREINCUBATION): inactive; negative
- mutagenic call (Test System: E. COLI, Strain/Indicator: WP2 UVRA (PKM101), Metabolic Activation: NONE, Method: STANDARD PLATE): inactive; negative
- mutagenic call (Test System: E. COLI, Strain/Indicator: WP2 UVRA (PKM101), Metabolic Activation: RAT, LIVER, S-9, AROCLOR 1254, Method: STANDARD PLATE): inactive; negative
- mutagenic call (Test System: UDS RAT HEPATOCYTES, Metabolic Activation: NONE, Method: AUTORADIOGRAPHY): inactive; negative
- mutagenic call (Test System: UDS RAT HEPATOCYTES, Strain/Indicator: BROMODEOXYURIDINE INCORP, Metabolic Activation: NONE): active; positive

SMILES: NO
- mutagenic call (Test System: AMES SALMONELLA TYPHIMURIUM, Strain/Indicator: TA97, Metabolic Activation: HAMSTER, LIVER, S-9, AROCLOR 1254 (10 OR 30%), Method: PREINCUBATION): inactive; negative
- mutagenic call [5]: inactive; negative
- mutagenic call (Test System: AMES SALMONELLA TYPHIMURIUM, Strain/Indicator: TA97, Metabolic Activation: RAT, LIVER, S-9, AROCLOR 1254 (10 OR 30%), Method: PREINCUBATION): inactive; negative
- mutagenic call (Test System: AMES SALMONELLA TYPHIMURIUM, Strain/Indicator: TA98, Metabolic Activation: HAMSTER, LIVER, S-9, AROCLOR 1254 (10%), Method: PREINCUBATION): inactive; negative
- mutagenic call (Test System: AMES SALMONELLA TYPHIMURIUM, Strain/Indicator: TA98, Metabolic Activation: HAMSTER, LIVER, S-9, AROCLOR 1254 (30%), Method: PREINCUBATION): inactive; negative
- mutagenic call [6]: inactive; negative
- mutagenic call (Test System: AMES SALMONELLA TYPHIMURIUM, Strain/Indicator: TA98, Metabolic Activation: RAT, LIVER, S-9, AROCLOR 1254 (10%), Method: PREINCUBATION): inactive; negative
- mutagenic call (Test System: AMES SALMONELLA TYPHIMURIUM, Strain/Indicator: TA98, Metabolic Activation: RAT, LIVER, S-9, AROCLOR 1254 (30%), Method: PREINCUBATION): inactive; negative
- mutagenic call (Test System: AMES SALMONELLA TYPHIMURIUM, Strain/Indicator: TA100, Metabolic Activation: HAMSTER, LIVER, S-9, AROCLOR 1254 (10%), Method: PREINCUBATION): inactive; negative
- mutagenic call (Test System: AMES SALMONELLA TYPHIMURIUM, Strain/Indicator: TA100, Metabolic Activation: HAMSTER, LIVER, S-9, AROCLOR 1254 (30%), Method: PREINCUBATION): inactive; negative
- mutagenic call [7]: inactive; negative
- mutagenic call (Test System: AMES SALMONELLA TYPHIMURIUM, Strain/Indicator: TA100, Metabolic Activation: RAT, LIVER, S-9, AROCLOR 1254 (10 OR 30%), Method: PREINCUBATION): inactive; negative
- mutagenic call (Test System: AMES SALMONELLA TYPHIMURIUM, Strain/Indicator: TA102, Metabolic Activation: RAT, LIVER, S-9, AROCLOR 1254, Method: STANDARD PLATE): inactive; negative
- mutagenic call (Test System: AMES SALMONELLA TYPHIMURIUM, Strain/Indicator: TA1535, Metabolic Activation: HAMSTER, LIVER, S-9, AROCLOR 1254 (10 OR 30%), Method: PREINCUBATION): inactive; negative
- mutagenic call (Test System: AMES SALMONELLA TYPHIMURIUM, Strain/Indicator: TA1535, Metabolic Activation: NONE, Method: PREINCUBATION): inactive; negative
- mutagenic call (Test System: AMES SALMONELLA TYPHIMURIUM, Strain/Indicator: TA1535, Metabolic Activation: RAT, LIVER, S-9, AROCLOR 1254 (10 OR 30%), Method: PREINCUBATION): inactive; negative
- mutagenic call [8]: active; positive
- mutagenic call [9]: active; positive

SMILES: NCCc1ccc(O)cc1
- mutagenic call [8]: active; positive
- mutagenic call [9]: active; positive

SMILES: C/C=C1/C[C@@H](C)[C@@](C)(O)C(=O)OCC2=CCN3CC[C@@H](OC1=O)[C@@H]23
- mutagenic call (Test System: AMES SALMONELLA TYPHIMURIUM, Strain/Indicator: TA100, Metabolic Activation: HAMSTER, LIVER, S-9, PCB, Method: PREINCUBATION): inactive; negative
- mutagenic call (Test System: AMES SALMONELLA TYPHIMURIUM, Strain/Indicator: TA100, Metabolic Activation: RAT, LIVER, S-9, PCB, Method: PREINCUBATION): inactive; negative
- mutagenic call (Test System: AMES SALMONELLA TYPHIMURIUM, Strain/Indicator: TA100, Metabolic Activation: RAT, LIVER, S-9, SODIUM PHENOBARBITAL AND BETA-NAPHTHOFLAVONE, Method: PREINCUBATION): inactive; negative
- mutagenic call (Test System: UDS RAT HEPATOCYTES, Strain/Indicator: THY INCORP, Metabolic Activation: NONE, Method: AUTORADIOGRAPHY): active; positive

SMILES: Nc1ccc(/C=C/C(=O)O)cc1
- mutagenic call [1]: inactive; negative
- mutagenic call [2]: inactive; negative
- mutagenic call [7]: inactive; negative
- mutagenic call [3]: inactive; negative
- mutagenic call (Test System: AMES SALMONELLA TYPHIMURIUM, Strain/Indicator: TA100, Metabolic Activation: RAT, LIVER, S-9, AROCLOR 1254, Method: PREINCUBATION): inactive; negative
- mutagenic call [4]: inactive; negative

SMILES: Oc1cc(O)cc(O)c1
- mutagenic call [5]: inactive; negative
- mutagenic call (Test System: AMES SALMONELLA TYPHIMURIUM, Strain/Indicator: TA97, Metabolic Activation: RAT, LIVER, S-9, PHENOBARBITAL, Method: PREINCUBATION): inactive; negative
- mutagenic call (Test System: AMES SALMONELLA TYPHIMURIUM, Strain/Indicator: TA98, Metabolic Activation: NONE): inactive; negative
- mutagenic call [6]: inactive; negative
- mutagenic call (Test System: AMES SALMONELLA TYPHIMURIUM, Strain/Indicator: TA98, Metabolic Activation: RAT, LIVER, S-9, PHENOBARBITAL, Method: PREINCUBATION): inactive; negative
- mutagenic call (Test System: AMES SALMONELLA TYPHIMURIUM, Strain/Indicator: TA98, Metabolic Activation: S-9): inactive; negative
- mutagenic call [7]: inactive; negative
- mutagenic call (Test System: AMES SALMONELLA TYPHIMURIUM, Strain/Indicator: TA100, Metabolic Activation: RAT, LIVER, S-9, PHENOBARBITAL, Method: PREINCUBATION): inactive; negative

— PubChem BioAssay AID1259407 (Chemical Carcinogenesis Research Information System (CCRIS), 2018)
